What was measured:
[1] = test system: human retinal endothelial cells; assay: TER of retinal endothelial cell monolayers with steroid receptor antagonists and hormones, Example 10; details: Example 10, concentrations of Table 10
[2] = test system: human retinal endothelial cells; assay: TER of retinal endothelial cell monolayers with steroid receptor antagonists, Example 6; details: 0.1 μM, Example 6
[3] = test system: human retinal endothelial cells; assay: ECIS (electric cell-substrate impedance sensing), Example 12, retinal cells
[4] = test system: human renal glomerular microvascular endothelial cells; assay: ECIS, Example 12, glomerular cells; details: danazol 1 μM, S1P 1 μM
[5] = test system: human retinal endothelial cells; assay: Actin stress fiber formation (rhodamine-phalloidin F-actin staining), TNFα, Example 7; details: TNFα 50 ng/ml alone, 30 minutes
VE-Cadherin = assay: VE-cadherin phosphorylation (immunoprecipitation, Pro-Q diamond / SYPRO ruby densitometry); type: cell-based, human; details: danazol 0.1 μM, VEGF 50 ng/ml
Description: The plates were immediately treated to lyse the cells as follows. PBS and the lysis buffer (PBS containing 1% Triton X-100 supplemented with phosphatase inhibitor solutions 1 and 2 (Sigma), protease inhibitor (Sigma) and sodium orthovanadate at a final concentration of 2 mM) were cooled to 4° C. The cells were washed two times with 5 ml of the ice cold PBS and then lysed in 500 μl of the ice cold lysis buffer. The resulting protein extracts were transferred to 1.7 ml microcentrifuge tubes, and cell debris was removed by spinning at 4° C. at 10,000 rpm for 10 minutes. Then, 450 μl of the cleared solution was transferred to tubes containing 25 μl of Protein Dynabeads (Invitrogen) coated with 10 μl C19 anti-VE cadherin polyclonal antibody (Santa Cruz Biotechnology) (coating performed following manufacturer's protocol). The extracts and beads were then incubated overnight at 4° C. on an orbital shaker to capture VE cadherin from the extracts. The beads were then washed four times with ice cold lysis buffer. To release the protein from the beads, they were heated for 10 minutes at 75° C. in SDS loading dye containing 20% reducing dye (Invitrogen).
The released proteins were separated in 4-20% polyacrylamide gels (Invitrogen) at 120 volts for 1 hour. To determine phosphorylation and total protein in the gels, Pro-Q diamond (Invitrogen) and SYPRO ruby (Invitrogen) protein staining were sequentially performed following the manufacturer's protocol. The gels were photographed and densitometry performed using a Kodak imaging station.

[6] = test system: human retinal endothelial cells; assay: Actin stress fiber formation (rhodamine-phalloidin F-actin staining), VEGF, Example 8; type: cell-based; details: VEGF 25 ng/ml alone, 30 minutes
Description: . […] To counter-stain for nuclei, 100 μl of a 3 μM DAPI (4,6-diamidino-2-phenylindole, dilactate (Invitrogen)) solution was added to each well. After 5 minutes, the cells were washed two times with 100 μl PBS.

With `C[C@]12CC[C@@H]3c4ccc(O)cc4C[C@@H](CCCCCCCCC[S+]([O-])CCCC(F)(F)C(F)(F)F)[C@H]3[C@@H]1CC[C@@H]2O` (stereo partly drawn) [Fluvestrant, fluvestrant] the “effect on TER compared to the control” value [1] was “essentially no effect” and the “effect on TER compared to the control” value [2] was “increased the TER measurements”.
In the case of `C[C@]12CC[C@H]3[C@@H](CCC4=CC(=O)CC[C@@]43C)[C@@H]1CC[C@@H]2O` [Testosterone, testosterone], the “effect on TER compared to the control” value [1] is reported as “reduced the readings very slightly”.
`CC(C)(O)C(=O)Nc1ccc([N+](=O)[O-])c(C(F)(F)F)c1` [Hydroxyflutamide, hydroxyflutamide] was tested, and the “effect on TER compared to the control” value [1] was “reduced the readings” and the “effect on TER compared to the control” value [2] was “reduced the readings”.
In the case of `CCCCCCCCCCCCC/C=C/[C@@H](O)[C@@H](N)COP(=O)(O)O` [S1P, sphingosine-1 phosphate], the “start of increase of ECIS as compared to untreated cells, after treatment” value ([3]; S1P 1 μM alone) is reported as no more than 15 min, the “persistence of increase of ECIS” value ([3]; danazol 1.0 μM, S1P 1 μM) is reported as “about 3 hours” and the “time after treatment until which there was no effect on ECIS” value [4] is reported as “about 30 hours”.
In the case of TNFα, the F-actin staining pattern [5] is reported as “strong stress fiber development with intensely staining focal points”.
For VEGF, the “effect on VE-cadherin phosphorylation” value (VE-Cadherin) was “caused an even greater increase in VE-cadherin phosphorylation”, the “Relative intensity - SYPRO results (total protein)” value (VE-Cadherin; Nil (ethanol control) 1.00) was 0.84 and the F-actin staining pattern [6] was “strong stress fiber development”.
